Measurements taken from patent publication US7285282B2, “Mucin peptide with immunoenhancing properties” (University of Miami, priority 2001, dated 2007).
Where no end group is shown, it is not given here.

Assays:
DA-3/sec targets = assay: Effect of perforin inhibitor or anti-Fas antibody on killing by DA-3/sec primed splenocytes; assay type: cell-based, mice; conditions: FIG. 14, FIG. 15
[1] = Toxicity in animals injected with the peptide; conditions: in vivo
DA-3/sec tumor targets = assay: Splenocyte cytotoxicity against DA-3/sec targets after in vitro MUC1/sec peptide; assay type: cell-based; conditions: peptide added in vitro for 5 days to splenocytes of normal and D1-DMBA-3 tumor bearing mice, FIG. 17
YAC-1 = assay: NK cell assay, splenocytes pretreated with IEP, YAC-1 targets; assay type: cell-based, BALB/c mice; conditions: 10 μg IEP, 30-45 minutes pretreatment, 4-hour assay, FIG. 18
From the text: As mentioned above, there is a unique 11 amino acid peptide present on the C-terminus of the MUC1/sec protein, but not on the MUC1/TM protein. […] We investigated the possible effects of the peptide on the cytotoxicity reaction. We tested it on yet another tumor model, i.e. the D1-DMBA-3 mammary tumor bearing mice. The DA-3 cell line was originally derived from this tumor, which is routinely passaged in vivo in our laboratory in the syngeneic BALB/c mice. […] The ability of this peptide to stimulate immune cells in a NK cell assay was tested. […] Therefore, to test for immunomodulatory activity of the immunoenhancing peptide (IEP), BALB/c splenocytes were pretreated for 30-45 minutes with 10 μg IEP and subsequently, chromium-labeled YAC-1 or EL-4 targets were added in a 4-hour assay as previously described (11).

For `C/C=C/[C@H]1O[C@@](O)([C@@H](C)[C@H](O)[C@H](C)[C@H]2OC(=O)/C(OC)=C/C(C)=C/[C@@H](C)[C@@H](O)[C@@H](CC)[C@@H](O)[C@H](C)C/C(C)=C/C=C/[C@@H]2OC)C[C@@H](O[C@H]2C[C@@H](O)[C@H](OC(N)=O)[C@@H](C)O2)[C@@H]1C` [Concanamycin A], the “Effect on killing of DA-3/sec targets by primed splenocytes” value (DA-3/sec targets) was “effectively blocked killing of DA-3/sec targets in a dose-dependent manner”.

In the case of VSIGLSFPMLP [IEP], the “Toxicity in injected animals” value [1] is reported as “No toxicity has been detected”, the “Cytotoxicity against DA-3/sec tumor targets” value (DA-3/sec tumor targets) is reported as “significant levels of cytotoxicity” and the “Cytotoxicity of normal splenocytes against YAC-1” value (YAC-1) is reported as “elevation of cytotoxic levels”.
